This passage reports IC50 results from ChEMBL document CHEMBL1143516, “Mercaptoamide-based non-hydroxamic acid type histone deacetylase inhibitors” (Bioorg Med Chem Lett, 2005).

Where only a bound is given, the exact number is not on record here.

By IC50 is commonly meant the concentration needed to halve the response being measured. A low value points to higher potency.

This assay concerns the target Histone deacetylase. Briefly: In vitro inhibitory concentration against Histone deacetylase; Control value 0.06 uM. It counts as protein assay, Homo sapiens.
`O=C(NCCS)C(=O)Nc1ccccc1`: the 50% inhibitory concentration (IC50) is 2800 nM. In other words, the single-digit micromolar range.

`O=C(CCCCCC[N-]CC[S-])Nc1ccccc1.[Zn+2]` returned a concentration for half-maximal inhibition (IC50) above 100000 nM.

In turn, `O=C(CS)NCCCC(=O)Nc1cnc2ccccc2c1` gave a concentration for half-maximal inhibition (IC50) of 660 nM. This lies in the sub-micromolar range.

The compound `O=C(CCCCC(=O)Nc1ccccc1)NCCS` displayed a 50% inhibitory concentration (IC50) of 1500 nM.

Compound `O=C(CS)NCCCCC(=O)Nc1cnc2ccccc2c1` came in with a half-inhibitory concentration (IC50) of 2800 nM.

`O=C(CS)NCCCCCC(=O)Nc1cnc2ccccc2c1`: the 50% inhibitory concentration (IC50) was found to be 1100 nM.

The compound `O=C(CC(=O)Nc1ccccc1)NCCS` showed an IC50 of 70000 nM. Against the preceding compound, the IC50 is about 64-fold higher.

Consider `O=C(CS)NCCC(=O)Nc1cnc2ccccc2c1`, for which the IC50 stood at 39500 nM.

Regarding `O=C(CCCC(=O)Nc1ccccc1)NCCS`, the IC50 was 3100 nM.

For `O=C(CCCCCCCC(=O)Nc1ccccc1)NCCS`, the IC50 was 10200 nM. Against the preceding compound, the IC50 is about 3.3-fold higher.

In the case of `O=C(CCCCCC(=O)Nc1ccccc1)NCCS`, the 50% inhibitory concentration (IC50) is 2500 nM.

Consider `O=C(CCCCCCC(=O)Nc1ccccc1)NCCS`, for which the IC50 is 2350 nM. This IC50 and that of the compound before are within 1.5-fold of each other.

`O=C(CCC(=O)Nc1ccccc1)NCCS`: the IC50 came out at 12500 nM.
